Consider one compound from patent US10166290B2, “Intralesional (Intratumoral) dinitrochlorobenzene and associated compounds coadministered with checkpoint inhibitors for cancer treatment including treatment of metastatic cutaneous cancers” (priority 2017, dated 2019).

A short description of data set [1]: Solubility of DNCB powder in acetone. Particulars: acetone diluent. In kind it is physicochemical. The text has this:
(§1) A drug mask and latex gloves should be used when working with the DNCB powder while preparing its dilution and preparation for injection. […] It should be noted that DNCB powder is irritating, and is also immunogenic because of its haptene like properties. […] Therefore preadministration of lidocaine or another injectable anesthetic should be used to infiltrate the tumor nodule injection site prior to the injection into the same site of the DNCB solution in acetone.

In data set [2] the test system is metastatic cutaneous tumor nodules. The note with it: some 53 rounds of intralesional treatment, published data (3), cited from earlier work.
Data set [3] is described as follows: Side effects of intralesional DNCB injections in the case reports. The class given is in vivo, human.
Source text: Patient #3 was […] when they saw their local physician in upstate New York because of a pigmented posterior scalp lesion. Biopsy at that time was originally read as a (benign) blue nevus. The diagnosis was later felt to be incorrect after a recurrent lesion at the same location continued to advance, becoming larger and bleeding when they combed their hair. The reoccurance led to a rebiopsy, now one year after the original biopsy which had been read as benign. […] A re-review of the slides from the first biopsy was then carried out. […] The patient was referred to the Memorial Sloane Kettering Hospital in New York City and was prepared for urgent wide excision and skin grafting of their posterior scalp lesions. […] The operative procedure was cancelled and the patient was referred. At the time of presentation initial radiographic evaluation for distant disease was negative. They received intralesional DNCB injections of between two and 10 satellite lesions every 4-6 weeks. On several occasions histologic or fine needle aspiration biopsy was carried out to continue to confirm the malignant nature of the lesions before intralesional injection. Biopsies were also carried out in order to confirm the absence of malignant cells in some post-injection inflammatory sites. […] Four months after their presentation, they were noted to have fewer than usual malignant lesions for injection, and received only 2 DNCB injections. However 1 month later they underwent 10 DNCB injections. One month after that they underwent DNCB injections of 8 malignant scalp lesions. Another month later they underwent intralesional DNCB injection of 10 malignant satellite scalp lesions. One and two months later they underwent DNCB injection of 8 lesions on each of the two visits. Five weeks later and 5 weeks after that, 2 lesions were injected on each visit. Chest xray and distant metastatic evaluations remained negative. The injection sites were being routinely pre-anesthetized with 0.5% lidocaine injections containing 1:100,000 epinephrine a few minutes before the injections with DNCB in acetone. Nevertheless the DNCB injection sites were uncomfortable for 4-6 hours after the lidocaine wore off, frequently with slight residual “soreness” the next day. Their last-mentioned round of two injections took place 11 months after the beginning of their injections. No new lesions were apparent for the next 2 months. The patient reported that after this last mentioned round of two injections, there was residual scalp discomfort for 8 days. […] Their strength and activity remained normal, including frequent vigorous dancing with their spouse. They often brought photographs of their scalp taken between visits. They occasionally reported sensations in uninjected areas in the scalp, ear or mastoid regions. No new lesions were apparent for 2 months.
as §1

Data set [4] relates to progressive, locally metastatic melanoma. The data set can be described thus: Intralesional DNCB injections into melanoma satellite / in transit metastatic lesions, case reports of three patients. In kind it is in vivo, human. An excerpt:
Following are the case reports of three long term (over ten year) survivors treated with intralesional DNCB in the setting of what was apparently uncontrollable, progressive, locally metastatic melanoma, ordinarily lethal as a result of subsequent progressive metastatic disease to the liver, lungs and/or brain.
Patient #1 was […] when they presented for treatment with progressive satellitosis and in transit metastases in their right leg. Four years previously they had undergone elsewhere a wide excision and split thickness skin grafting for a Clark Level IV melanoma of their right calf. […] One month prior to their presentation with satellitosis, recurrence had been noticed in the skin of the right popliteal fossa, and slightly higher. Their surgeon had planned to do a local excision in the region but had desisted when, at the time of their skin incision, multiple metastatic deposits were grossly visible in the deep dermal and subcutaneous regions. […] Two weeks after presentation, at the time of their first round of intralesional injections, the patient was noted to have 14 metastatic lesions in the posterior thigh region. These were each infiltrated with xylocaine and injected with DNCB. Each lesion was individually marked and followed. It was later estimated that 13 of the 14 lesions injected on this round ultimately regressed. A month after the first round of injections the patient underwent a second round of injections into five lesions on the posterior thigh. Four weeks after their second round of injections, a third round of injections was carried out for 10 lesions which had newly appeared. […] Accordingly the patient was taken to the operating room and an excision was carried out. […]
Patient #3 was […] when they saw their local physician in upstate New York because of a pigmented posterior scalp lesion. Biopsy at that time was originally read as a (benign) blue nevus. […] The reoccurance led to a rebiopsy, now one year after the original biopsy which had been read as benign. […]

Read-outs that look alike come from different tables or passages of the source.

Regarding `O=[N+]([O-])c1ccc(Cl)c([N+](=O)[O-])c1` [DNCB, 2, 4 dinitrochlorobenzene], in data set [1], the solubility in acetone entry was “ready solubility”. Also, the “side effects of intralesional treatment” value in data set [2] was “local, consisting of erythema or ulceration, not life-threatening, and not associated with any internal organ damage or defects”; in data set [2] (listed as dinitrochlorobenzene), “without the undesirable checkpoint inhibitor potential side effect of attacks against normal organs”; in data set [2] (listed as dinitrohalogenated compound) it was “side effects essentially restricted to only side effects related to inflammation at the local injection sites”. The “constitutional symptoms such as fatigue, fever, or malaise” value in data set [3] (Patient #3) is reported as “no constitutional symptoms”. For the same compound, in data set [3] (Patient #3, DNCB in acetone, sites pre-anesthetized with 0.5% lidocaine), the “duration of injection site discomfort after the lidocaine wore off” value is 4 to 6 h. Further, in data set [3] (Patient #3, after round of 3 lesions injected), the “facial swelling after injections” value is recorded as “mild facial swelling for a few days”. Also, the “duration of residual scalp discomfort” value in data set [3] (Patient #3, after round of two injections 11 months after beginning) turned out to be 8 days. In addition, the “local effect of the DNCB solution in acetone on injection” value in data set [3] (solution in acetone) was “irritating locally, and causes pain at the injection site”. Moreover, in data set [4] (Patient #1, after sixth round of injections), the “time apparently disease free between last injections and death” value was 30 years. In addition, the “time patient remained well with no evidence of metastasis after end of injections” value in data set [4] (Patient #2) turned out to be 12 years. Besides, in data set [4] (Patient #3), the “period with no apparent melanoma following last intralesional injection” value came to 18 year.
